Results reported in patent US6468998B1, “Pyrrolidine compounds and medicinal utilization thereof” (Mitsubishi Pharma Corporation, priority 1998, dated 2002).
Structures can show the parent of a compound that is named as a salt.

| melting point | Structure (SMILES) |
| --- | --- |
| 149 to 151 °C | O=C(N[C@H]1CCN(C[C@@H](O)c2ccccc2)C1)C12CC3CC(CC(C3)C1)C2 (as salt: hydrochloride) (hydrate or solvate) [Example 71, (S)-N-(1-((S)-2-hydroxy-2-phenylethyl)pyrrolidin-3-yl)-1-adamantanecarboxamide] |
| 241 to 242 °C | CN(C(=O)C12CC3CC(CC(C3)C1)C2)[C@H]1CCN(CCc2ccccc2F)C1 (as salt: hydrochloride) [Example 66, (S)-N-methyl-N-(1-(2-(2-fluorophenyl)ethyl)pyrrolidin-3-yl)-1-adamantanecarboxamide] |
| 156 to 158 °C | O=C(N[C@H]1CCN(CCc2ccc(F)cc2)C1)C(c1ccccc1)c1ccccc1 (as salt: oxalate) (hydrate or solvate) [Example 24, (S)-N-(1-(2-(4-fluorophenyl)ethyl)pyrrolidin-3-yl)diphenylacetamide] |
| 191 to 192 °C | O=C(N[C@H]1CCN(CCc2ccccc2)C1)C(c1ccccc1)c1ccccc1 (as salt: oxalate) [Example 23, (S)-N-(1-(2-phenylethyl)pyrrolidin-3-yl)diphenylacetamide] |
| 119 to 121 °C | O=C(N[C@H]1CCN(CCc2ccccc2)C1)C12CC3CC(CC(C3)C1)C2 [Example 1, (S)-N-(1-(2-phenylethyl)pyrrolidin-3-yl)-1-adamantanecarboxamide] |
| 94 to 95 °C | O=C(N[C@H]1CCN(CCc2ccc(Cl)cc2)C1)C12CC3CC(CC(C3)C1)C2 [Example 3, (S)-N-(1-(2-(4-chlorophenyl)ethyl)pyrrolidin-3-yl)-1-adamantanecarboxamide] |
| 81 to 83 °C | COc1ccc(CCN2CC[C@H](NC(=O)C34CC5CC(CC(C5)C3)C4)C2)cc1 [Example 4, (S)-N-(1-(2-(4-methoxyphenyl)ethyl)pyrrolidin-3-yl)-1-adamantanecarboxamide] |
| 104 to 105 °C | N#Cc1ccc(CCN2CC[C@H](NC(=O)C34CC5CC(CC(C5)C3)C4)C2)cc1 [Example 6, (S)-N-(1-(2-(4-cyanophenyl)ethyl)pyrrolidin-3-yl)-1-adamantanecarboxamide] |
| 87 to 89 °C | O=C(N[C@H]1CCN(CCc2cccc(F)c2)C1)C12CC3CC(CC(C3)C1)C2 [Example 9, (S)-N-(1-(2-(3-fluorophenyl)ethyl)pyrrolidin-3-yl)-1-adamantanecarboxamide] |
| 106 to 108 °C | O=C(N[C@H]1CCN(CCc2ccccc2F)C1)C12CC3CC(CC(C3)C1)C2 [Example 10, (S)-N-(1-(2-(2-fluorophenyl)ethyl)pyrrolidin-3-yl)-1-adamantanecarboxamide] |
| 130 to 132 °C | O=C(N[C@H]1CCN(Cc2ccccc2)C1)C12CC3CC(CC(C3)C1)C2 [Example 13, (S)-N-(1-benzylpyrrolidin-3-yl)-1-adamantanecarboxamide] |
| 118 to 120 °C | O=C(N[C@H]1CCN(CCCc2ccccc2)C1)C12CC3CC(CC(C3)C1)C2 [Example 14, (S)-N-(1-(3-phenylpropyl)pyrrolidin-3-yl)-1-adamantanecarboxamide] |
| 114 to 115 °C | O=C(N[C@H]1CCN(CCCc2ccc(F)cc2)C1)C12CC3CC(CC(C3)C1)C2 [Example 15, (S)-N-(1-(3-(4-fluorophenyl)propyl)pyrrolidin-3-yl)-1-adamantanecarboxamide] |
| 117 to 119 °C | O=C(N[C@H]1CCN(CCCc2ccc(Cl)cc2)C1)C12CC3CC(CC(C3)C1)C2 [Example 16, (S)-N-(1-(3-(4-chlorophenyl)propyl)pyrrolidin-3-yl)-1-adamantanecarboxamide] |
| 82 to 84 °C | O=C(N[C@H]1CCN(CCCCc2ccccc2)C1)C12CC3CC(CC(C3)C1)C2 [Example 17, (S)-N-(1-(4-phenylbutyl)pyrrolidin-3-yl)-1-adamantanecarboxamide] |
| 122 to 124 °C | O=C(N[C@H]1CCN(CCc2ccc(F)cc2)C1)C(C1CCCCC1)C1CCCCC1 [Example 26, (S)-N-(1-(2-(4-fluorophenyl)ethyl)pyrrolidin-3-yl)dicyclohexylacetamide] |
| 117 to 119 °C | O=C(Cc1ccccc1C1CCCC1)N[C@H]1CCN(CCc2ccccc2)C1 [Example 27, N-((S)-1-(2-phenylethyl)pyrrolidin-3-yl)-2-cyclopentylphenylacetamide] |
| 127 to 128 °C | O=C(N[C@H]1CCN(CCc2ccc(F)cc2)C1)C1=c2ccccc2=CC=C2CC=CC=C21 [Example 36, (S)-N-(1-(2-(4-fluorophenyl)ethyl)pyrrolidin-3-yl)dibenzo[a,d]cycloheptene-5-carboxamide] |
| 97 to 98 °C | O=C(N[C@H]1CCN(CCc2ccc(F)cc2)C1)N(C1CCCCC1)C1CCCCC1 [Example 48, (S)-1,1-dicyclohexyl-3-(1-(2-(4-fluorophenyl)ethyl)pyrrolidin-3-yl)urea] |
| 118 to 120 °C | O=C(N[C@@H]1CCN(CCc2ccccc2)C1)C12CC3CC(CC(C3)C1)C2 [Example 63, (R)-N-(1-(2-phenylethyl)pyrrolidin-3-yl)-1-adamantanecarboxamide] |
| 107 to 108 °C | O=C(N[C@H]1CCN(CCc2ccc(F)cc2)C1)n1c2ccccc2c2ccccc21 [Example 72, (S)-N-(1-(2-(4-fluorophenyl)ethyl)pyrrolidin-3-yl)carbazole-9-carboxamide] |
| 96 to 98 °C | O=C(N[C@H]1CCN(CCc2ccc(F)cc2)C1)C(c1cccs1)c1cccs1 [Example 73, (S)-2,2-di(2-thienyl)-N-(1-(2-(4-fluorophenyl)ethyl)pyrrolidin-3-yl)acetamide] |
| 107 to 108 °C | O=C(N[C@H]1CCN(CCc2ccc(F)cc2)C1)C(c1ccccc1F)c1ccccc1F [Example 74, (S)-2,2-bis(2-fluorophenyl)-N-(1-(2-(4-fluorophenyl)ethyl)pyrrolidin-3-yl)acetamide] |
| 108 to 110 °C | Cc1ccccc1C(C(=O)N[C@H]1CCN(CCc2ccc(F)cc2)C1)c1ccccc1C [Example 75, (S)-2,2-bis(2-methylphenyl)-N-(1-(2-(4-fluorophenyl)ethyl)pyrrolidin-3-yl)acetamide] |
